Experimental data from US12077503B2, “Substituted cyclic amides and their use as herbicides” (FMC CORPORATION, priority 2015, dated 2024).

Experiments:
Assay type in all cases: in vivo
[1] = test system: velvetleaf (Abutilon theophrasti); test: Test G Pre-Emergence Protocol; details: evaluated after 13 days
Experimental: (§1) Seeds of corn (Zea mays), giant foxtail (Setaria faberi), barnyardgrass (Echinochloa crus-galli), ivy-leaved morning glory (Ipomoea hederacea), redroot pigweed (Amaranthus retroflexus) and velvetleaf (Abutilon theophrasti) were sown in standard soil in pots. After cultivation for one day under controlled conditions in a glasshouse (at 24/16° C., day/night; 14 hours light; 65% humidity), the plants were sprayed with an aqueous spray solution derived from the formulation of the technical active ingredient in acetone/water (50:50) solution containing 0.5% Tween 20 (polyoxyethylene sorbitan monolaurate, CAS RN 9005-64-5) to give a final dose of 15.625, 62.5 or 250 g/ha of test compound.
(§2) The test plants were then grown on under controlled conditions in a glasshouse (at 24/16° C., day/night; 14 hours light; 65% humidity) and watered twice daily. After 13 days the test was evaluated (100=total damage to plant; 0=no damage to plant). A dash (-) means no test result.

[2] = test system: barnyardgrass (Echinochloa crus-galli); test: Test G Pre-Emergence Protocol; details: Echinochloa crus-galli, pre-emergence, 312 h, evaluated after 13 days
Experimental: as §1, §2

[3] = test system: giant foxtail (Setaria faberi); test: Test G Pre-Emergence Protocol; details: Setaria faberi, pre-emergence, 312 h, evaluated after 13 days
Experimental: as §1, §2

corn (Zea mays) [4] = test: Test G Pre-Emergence Protocol; details: evaluated after 13 days
Experimental: as §1, §2

[5] = test system: redroot pigweed (Amaranthus retroflexus); test: Test G Pre-Emergence Protocol; details: evaluated after 13 days
Experimental: as §1, §2

[6] = test system: ivy-leaved morning glory (Ipomoea hederacea); test: Test G Pre-Emergence Protocol; details: evaluated after 13 days
Experimental: as §1, §2

[7] = test system: velvetleaf (Abutilon theophrasti); test: Test G Post-Emergence Protocol
Experimental: as §1, with “8 days” for “one day”
as §2

[8] = test system: barnyardgrass (Echinochloa crus-galli); test: Test G Post-Emergence Protocol
Experimental: as §1, with “8 days” for “one day”
as §2

[9] = test system: giant foxtail (Setaria faberi); test: Test G Post-Emergence Protocol
Experimental: as §1, with “8 days” for “one day”
as §2

corn (Zea mays) [10] = test: Test G Post-Emergence Protocol
Experimental: as §1, with “8 days” for “one day”
as §2

[11] = test system: redroot pigweed (Amaranthus retroflexus); test: Test G Post-Emergence Protocol
Experimental: as §1, with “8 days” for “one day”
as §2

[12] = test system: ivy-leaved morning glory (Ipomoea hederacea); test: Test G Post-Emergence Protocol
Experimental: as §1, with “8 days” for “one day”
as §2

[13] = 62.5 g ai/ha, 100=total damage to plant, 0=no damage to plant
[14] = 15.625 g ai/ha, evaluated after 13 days (100=total damage to plant; 0=no damage to plant)
[15] = 62.5 g ai/ha, evaluated after 13 days
[16] = 250 g ai/ha, evaluated after 13 days

CN1C[C@H](c2ccc(C(F)(F)F)cc2)[C@@H](C(=O)Nc2cccc(F)n2)C1=O (racemic) [Compound 1428]
Velvetleaf damage rating (100=total damage to plant; 0=no damage to plant) ([1]; 15.625 g ai/ha): 0
plant damage rating, Velvetleaf [1, 13]: 0
Velvetleaf damage rating (100=total damage to plant; 0=no damage to plant) ([1]; 250 g ai/ha): 0
pest or weed control at 15.625 g/ha ([2]; 15.625 g ai/ha, read-out: Barnyard grass damage rating (100=total damage to plant; 0=no damage to plant)): 50%
pest or weed control at 62.5 g/ha ([2]; 62.5 g ai/ha, 100=total damage to plant, 0=no damage to plant, read-out: plant damage rating, Barnyardgrass): 60%
pest or weed control at 250 g/ha ([2]; 250 g ai/ha, read-out: Barnyardgrass damage rating (100=total damage to plant; 0=no damage to plant)): 80%
pest or weed control at 15.625 g/ha ([3]; 15.625 g ai/ha, read-out: Foxtail, Giant damage rating (100=total damage to plant; 0=no damage to plant)): 70%
pest or weed control at 62.5 g/ha ([3]; 62.5 g ai/ha, 100=total damage to plant, 0=no damage to plant, read-out: plant damage rating, Foxtail, Giant): 80%
pest or weed control at 250 g/ha ([3]; 250 g ai/ha, read-out: Foxtail, Giant damage rating (100=total damage to plant; 0=no damage to plant)): 80%
Corn damage rating (100=total damage to plant; 0=no damage to plant) (corn (Zea mays) [4]; 15.625 g ai/ha): 50
plant injury at 62.5 g/ha (corn (Zea mays) [4]; Zea mays, pre-emergence, 312 h, 62.5 g ai/ha, 100=total damage to plant, 0=no damage to plant, read-out: plant damage rating, Corn): 20%
plant injury at 250 g/ha (corn (Zea mays) [4]; Zea mays, pre-emergence, 312 h, 250 g ai/ha, read-out: Corn damage rating (100=total damage to plant; 0=no damage to plant)): 70%
Pigweed, Redroot damage rating (100=total damage to plant; 0=no damage to plant) ([5]; 15.625 g ai/ha): 0
plant damage rating, Pigweed, Redroot [5, 13]: 0
pest or weed control at 250 g/ha ([5]; Amaranthus retroflexus, pre-emergence, 312 h, 250 g ai/ha, read-out: Pigweed, Redroot damage rating (100=total damage to plant; 0=no damage to plant)): 80%
Morning-glory, Ivy-leaved damage rating (100=total damage to plant; 0=no damage to plant) ([6]; 15.625 g ai/ha): 10
plant damage rating, Morningglory, Ivy-leaved [6, 13]: 10
pest or weed control at 250 g/ha ([6]; Ipomoea, pre-emergence, 312 h, 250 g ai/ha, read-out: Morningglory, Ivy-leaved damage rating (100=total damage to plant; 0=no damage to plant)): 40%
Velvetleaf damage rating [7, 14]: 0
Velvetleaf damage rating (100=total damage to plant; 0=no damage to plant) [7, 15]: 0
damage to plant, Velvetleaf (100=total damage to plant; 0=no damage to plant) [7, 16]: 0
Barnyardgrass damage rating [8, 14]: 20
Barnyardgrass damage rating (100=total damage to plant; 0=no damage to plant) [8, 15]: 20
damage to plant, Barnyardgrass (100=total damage to plant; 0=no damage to plant) [8, 16]: 40
Foxtail, Giant damage rating [9, 14]: 30
pest or weed control at 62.5 g/ha ([9]; Setaria faberi, post-emergence, 312 h, 62.5 g ai/ha, evaluated after 13 days, read-out: Foxtail, Giant damage rating (100=total damage to plant; 0=no damage to plant)): 50%
pest or weed control at 250 g/ha ([9]; Setaria faberi, post-emergence, 312 h, 250 g ai/ha, evaluated after 13 days, read-out: damage to plant, Foxtail, Giant (100=total damage to plant; 0=no damage to plant)): 60%
damage to plant, Corn (100=total damage to plant; 0=no damage to plant) (corn (Zea mays) [10]; [16]): 20
plant injury at 15.625 g/ha (corn (Zea mays) [10]; Zea mays, post-emergence, 312 h, 15.625 g ai/ha, evaluated after 13 days (100=total damage to plant; 0=no damage to plant), read-out: Corn damage rating): 10%
plant injury at 62.5 g/ha (corn (Zea mays) [10]; Zea mays, post-emergence, 312 h, 62.5 g ai/ha, evaluated after 13 days, read-out: Corn damage rating (100=total damage to plant; 0=no damage to plant)): 10%
Pigweed, Redroot damage rating (100=total damage to plant; 0=no damage to plant) [11, 15]: 10
pest or weed control at 15.625 g/ha ([11]; Amaranthus retroflexus, post-emergence, 312 h, 15.625 g ai/ha, evaluated after 13 days (100=total damage to plant; 0=no damage to plant), read-out: Pigweed, Redroot damage rating): 10%
pest or weed control at 250 g/ha ([11]; Amaranthus retroflexus, post-emergence, 312 h, 250 g ai/ha, evaluated after 13 days, read-out: damage to plant, Pigweed, Redroot (100=total damage to plant; 0=no damage to plant)): 40%
Morningglory, Ivy-leaved damage rating [12, 14]: 10
Morningglory, Ivy-leaved damage rating (100=total damage to plant; 0=no damage to plant) [12, 15]: 10
damage to plant, Morningglory, Ivy-leaved (100=total damage to plant; 0=no damage to plant) [12, 16]: 20
